From patent publication US20080176885A1, “Novel synergistic opioid-cannabinoid codrug for pain management” (University of Kentucky, priority 2006, published 2008)
“And” between values parts separate entries of the source, which are not always exact repeats. Equal entries are not always repeated.

Test system: thermally-induced nociception in rats
Test: Tail-flick test (thermally-induced nociception) in rats
Assay type: in vivo, rat (male Sprague-Dawley)
Details: i.p., rat, cut off 10 seconds
Experimental: The purpose of the study was to determine the analgesic effect of tetrahydrocannabinol (Δ-9 THC) alone, Morphine Alone and Δ-9 THC in combination with Morphine on thermal-induced pain was determined. […] The dose response curve for the tail flick test and the analgesic effects of various doses of Morphine alone, Δ-9 THC alone as well as various doses of Δ-9 THC combined with various doses of morphine was determined by comparing pre-injection baseline values to post-injection values.
The tail-flick test was performed according to the following procedure:
Male Sprague-Dawley rats all with an approximate age of 85 to 90 days were each weighed prior to being subjected to any tests, on the day of the experiment. Each rat was only used for one day of experiments, and given only one dose, or dose combination. • 1. Prior to tail-flick test, rats are habituated for three days to handling and the tail flick procedure, without heat exposure. • 2. On the day of the experiment, warm up the tail-flick apparatus (IITC Model 33, Life Science, Woodland Hills, Calif.) for at least 30 minutes. • 3. Adjust the intensity of the lamp so that baseline tail-flick latency for rats is equal to approximately 2.0 seconds. […] Place rat in a mitten and blacken tail with ink approximately 2 inches in length at 1 inch from the tip of the tail. • 6. Place the tail flatly in the groove of the tail-flick apparatus. • 7. Push start to begin heat exposure. The lamp will turn off automatically when the tail flicks from the heat source. • 8. For each rat, a baseline score is determined prior to injection. TFL (tail flick latency) is measured twice in an approximate 15 minute intervals and an average of the two times determines the baseline. • 9. Once the baseline value is determined, TFL is measured, following the injection of drugs, at times 15, 30, 60 and 120 minutes.
All solutions were made on the day of the experiment. Not all of the solutions described below were used in every experiment. The drug combinations vary for each experiment. Each particular combination for an experiment is reported in the corresponding table below.
Each animal is given an injection of morphine that is 1 ml/kg body weight, and an injection of THC or control that is varies by dose and the injection volume is calculated as set forth above.

[1] = Example 10, dose Z: 2 mg/kg morphine 30 minutes after vehicle

Compound: CN1CC[C@]23c4c5ccc(O)c4O[C@H]2[C@@H](O)C=C[C@H]3[C@H]1C5 [Morphine]
- Tail Flick Latency (TFL, seconds) 15 min (Example 7, dose Z: vehicle and 2 mg/kg morphine, 15 min): 3.08 s and 3.12 s and 2.28 s
- Tail Flick Latency (TFL, seconds) 30 min (Example 7, dose Z: vehicle and 2 mg/kg morphine): 2.96 s and 2.83 s and 4.73 s
- Tail Flick Latency (TFL, seconds) 60 min (Example 7, dose Z: vehicle and 2 mg/kg morphine, 60 min): 2.22 s and 3.69 s and 3.85 s
- Tail Flick Latency (TFL, seconds) 30 min (Example 9, dose Z: 2 mg/kg Morphine and vehicle): 4.22 s and 4.99 s and 3.00 s
- Tail Flick Latency (TFL, seconds) 60 min (Example 9, dose Z: 2 mg/kg Morphine and vehicle, 60 min): 2.91 s and 5.25 s and 3.97 s
- Tail Flick Latency (TFL, seconds) 120 min (Example 9, dose Z: 2 mg/kg Morphine and vehicle, 120 min): 2.68 s and 4.83 s and 2.67 s
- Tail Flick Latency (TFL, seconds) 15 min (Example 10, dose Z: 2 mg/kg morphine 30 minutes after vehicle, 15 min): 2.41 s and 2.99 s and 3.89 s and 2.36 s and 2.97 s and 3.02 s
- Tail Flick Latency (TFL, seconds) 30 min [1]: 2.90 s and 3.58 s and 4.86 s and 4.07 s and 4.39 s and 3.90 s
- Tail Flick Latency (TFL, seconds) 60 min (Example 10, dose Z: 2 mg/kg morphine 30 minutes after vehicle, 60 min): 3.26 s and 3.14 s and 3.96 s and 3.86 s and 3.99 s and 4.01 s
- Tail Flick Latency (TFL, seconds) 120 min (Example 10, dose Z: 2 mg/kg morphine 30 minutes after vehicle, 120 min): 2.68 s and 2.94 s and 3.18 s and 3.06 s and 3.23 s
- Tail Flick Latency (TFL, seconds) 180 min [1]: 2.15 s and 2.64 s and 2.59 s and 2.18 s and 2.56 s and 2.67 s
- Tail Flick Latency (TFL, seconds) 15 min (dose B: 3 mg/kg morphine and vehicle, 15 min post-injection): 2.38 s and 2.19 s and 2.74 s
- Tail Flick Latency (TFL, seconds) 60 min (dose B: 3 mg/kg morphine and vehicle, 60 min post-injection): 5.36 s and 4.63 s and 4.80 s
- Tail Flick Latency (TFL, seconds) 120 min (dose B: 3 mg/kg morphine and vehicle, 120 min post-injection): 4.02 s and 4.55 s and 3.99 s

Compound: CCCCCc1cc(O)c2c(c1)OC(C)(C)[C@@H]1CCC(C)=C[C@@H]21 [Δ-9 THC, delta-9-tetrahydrocannabinol]
- Tail Flick Latency (TFL, seconds) 15 min (Example 6, dose X: saline and 2 mg/kg Δ-9 THC, 15 min): 2.33 s and 1.77 s and 2.10 s
- Tail Flick Latency (TFL, seconds) 15 min (Example 8, dose X: saline and 2 mg/kg Δ-9 THC, 15 min): 2.57 s and 1.88 s and 3.65 s
- Tail Flick Latency (TFL, seconds) 180 min (dose C: saline and 8 mg/kg Δ-9 THC): 10.0 s
- Tail Flick Latency (TFL, seconds) 240 min (dose C: saline and 8 mg/kg Δ-9 THC, 240 min): 9.21 s and 8.98 s and 7.28 s
- Tail Flick Latency (TFL, seconds) 15 min (dose E: saline and 1 mg/kg Δ-9 THC, 15 min): 2.12 s and 2.03 s
- Tail Flick Latency (TFL, seconds) 30 min (dose E: saline and 1 mg/kg Δ-9 THC): 2.56 s and 2.15 s
- Tail Flick Latency (TFL, seconds) 60 min (dose E: saline and 1 mg/kg Δ-9 THC, 60 min): 3.98 s and 5.07 s
- Tail Flick Latency (TFL, seconds) 120 min (dose E: saline and 1 mg/kg Δ-9 THC, 120 min): 4.20 s and 3.09 s
- Tail Flick Latency (TFL, seconds) 30 min (dose G: saline and 4 mg/kg Δ-9 THC): 5.07 s and 5.89 s and 5.10 s
- Tail Flick Latency (TFL, seconds) 60 min (dose G: saline and 4 mg/kg Δ-9 THC, 60 min): 6.24 s and 8.76 s and 6.48 s
